Patent US20250353891A1 (MEDIMMUNE LIMITED, priority 2022, published 2025)
Starred links: 1 amine or outer side, 2 acyl side, 3 side chain; linkers in the order of their positions; H or OH if unused. Non-standard residues stand in square brackets, D forms with d. Residues, ends and D or L forms follow the SMILES beside them. Groups on a side chain read outwards from the residue. *: point of attachment. PEG12 = NCCOCCOCCOCCOCCOCCOCCOCCOCCOCCOCCOCCOCCC(=O)O; C18 diacid = O=C(O)CCCCCCCCCCCCCCCCC(=O)*; PEG8 = NCCOCCOCCOCCOCCOCCOCCOCCOCCC(=O)O; Dip = N[C@H](C(=O)O)C(c1ccccc1)c1ccccc1; γGlu = O=C(O)[C@H](CCC(=O)[*:2])N[*:1]; Stearoyl = CCCCCCCCCCCCCCCCCC(=O)*; αMeF = C[C@](N)(Cc1ccccc1)C(=O)O; PEG4 = NCCOCCOCCOCCOCCC(=O)O; PEG2 = NCCOCCOCCC(=O)O; AEEA = NCCOCCOCC(=O)O; Aib = CC(C)(N)C(=O)O

Experiments:
[1] = molecular target: human glucagon receptor (hGCGR) (Homo sapiens, UniProt P47871); test: cAMP production (HTRF) in CHO cells expressing hGCGR; assay type: cell-based; set-up: expressed in transfected cells; settings: Table 6, peptides modified at position 17; cAMP in CHO hGCGR cells; geometric mean; read-out: hGluc-R EC50
How it was run: (§1)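 Read-out: HTRF cAMP (anti-cAMP cryptate donor, cAMP-d2 acceptor in conjugate/lysis buffer), converted to % Delta F and fitted by 4-parameter logistic for EC50. Cell densities were 1×10^5 cells/mL (hGLP-1R) or 2×10^5 cells/mL (hGCGR). Stimulation lasted 30 min at room temperature.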

[2] = molecular target: human GLP-1 receptor (hGLP-1R) (Homo sapiens, UniProt P43220); test: cAMP production (HTRF) in CHO cells expressing hGLP-1R; assay type: cell-based; set-up: expressed in transfected cells; settings: for EC50: Table 6, peptides modified at position 17, cAMP in CHO hGLP-1R cells, geometric mean, read-out: hGLP-1R EC50; for % Relative Potency Ratio: Table 6, % GLP-1R activity relative to GLP-1 / % GlucR activity relative to glucagon
How it was run: as §1

Chain of human glucagon receptor (hGCGR) (P47871 26-477): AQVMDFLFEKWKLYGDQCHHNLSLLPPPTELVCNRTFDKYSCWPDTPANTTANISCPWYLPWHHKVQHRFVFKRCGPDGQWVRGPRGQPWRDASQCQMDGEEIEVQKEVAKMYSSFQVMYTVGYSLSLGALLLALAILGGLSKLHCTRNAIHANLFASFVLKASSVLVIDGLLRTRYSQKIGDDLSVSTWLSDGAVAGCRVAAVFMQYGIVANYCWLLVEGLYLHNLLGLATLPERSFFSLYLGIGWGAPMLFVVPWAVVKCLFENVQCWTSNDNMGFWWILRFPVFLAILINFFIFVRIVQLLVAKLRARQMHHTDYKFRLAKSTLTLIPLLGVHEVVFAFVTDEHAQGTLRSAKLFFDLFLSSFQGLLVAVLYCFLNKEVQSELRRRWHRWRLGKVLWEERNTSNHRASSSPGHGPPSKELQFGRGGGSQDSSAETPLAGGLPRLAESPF
Chain of human GLP-1 receptor (hGLP-1R) (P43220 24-463): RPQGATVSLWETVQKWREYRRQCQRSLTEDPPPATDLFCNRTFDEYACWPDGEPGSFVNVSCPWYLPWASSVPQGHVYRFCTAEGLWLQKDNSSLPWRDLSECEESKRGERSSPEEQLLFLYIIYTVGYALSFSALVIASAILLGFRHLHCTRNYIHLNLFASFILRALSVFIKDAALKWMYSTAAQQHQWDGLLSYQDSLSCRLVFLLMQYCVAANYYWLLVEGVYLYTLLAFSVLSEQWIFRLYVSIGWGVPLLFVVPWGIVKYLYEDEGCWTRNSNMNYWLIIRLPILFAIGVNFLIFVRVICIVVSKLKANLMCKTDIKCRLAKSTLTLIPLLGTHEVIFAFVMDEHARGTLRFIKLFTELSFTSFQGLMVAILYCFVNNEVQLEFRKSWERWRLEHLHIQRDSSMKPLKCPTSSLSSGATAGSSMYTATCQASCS

Compound | EC50 [1] | EC50 [2] | % Relative Potency Ratio [2]
CC(C)C[C@H](NC(=O)C(C)(C)NC(=O)[C@H](CCC(N)=O)NC(=O)[C@@H](NC(=O)[C@H](Cc1ccccc1)NC(=O)[C@H](CC(=O)O)NC(=O)[C@H](CCC(N)=O)NC(=O)[C@H](C)NC(=O)[C@H](CCCNC(=N)N)NC(=O)[C@H](CCCCNC(=O)COCCOCCNC(=O)COCCOCCNC(=O)CC[C@H](NC(=O)CCCCCCCCCCCCCCCCC(=O)O)C(=O)O)NC(=O)[C@H](CO)NC(=O)[C@H](CC(=O)O)NC(=O)[C@H](CC(C)C)NC(=O)[C@](C)(Cc1ccccc1)NC(=O)[C@H](CCCCN)NC(=O)[C@H](CO)NC(=O)[C@@H](NC(=O)[C@H](CC(=O)O)NC(=O)[C@H](CO)NC(=O)[C@@H](NC(=O)[C@H](Cc1ccccc1)NC(=O)[C@@H](NC(=O)CNC(=O)[C@H](CCC(N)=O)NC(=O)C(C)(C)NC(=O)[C@@H](N)Cc1c[nH]cn1)[C@@H](C)O)[C@@H](C)O)C(C)C)C(C)C)C(=O)N[C@H](C(=O)N[C@@H](C)C(=O)N[C@H](C(=O)O)[C@@H](C)O)C(C)C [Peptide 42] (H-H[Aib]QGTFTSDVSK[αMeF]LDSK([AEEA-AEEA-γGlu-C18 diacid])RAQDFVQ[Aib]LVAT-OH; N-terminus assumed) | 8190 pM | 665 pM | 24.4
CCCCCCCCCCCCCCCCCC(=O)N[C@@H](CCC(=O)N[C@@H](CCC(=O)NCCOCCOCCC(=O)NCCOCCOCCC(=O)NCCCC[C@H](NC(=O)[C@H](CO)NC(=O)[C@H](CC(=O)O)NC(=O)[C@H](CC(C)C)NC(=O)[C@@H](NC(=O)[C@H](CCCCN)NC(=O)[C@H](CO)NC(=O)[C@@H](NC(=O)[C@H](CC(=O)O)NC(=O)[C@H](CO)NC(=O)[C@@H](NC(=O)[C@](C)(Cc1ccccc1)NC(=O)[C@H](CO)NC(=O)CNC(=O)[C@H](CCC(N)=O)NC(=O)[C@H](CO)NC(=O)[C@@H](N)Cc1c[nH]cn1)[C@@H](C)O)C(C)C)C(c1ccccc1)c1ccccc1)C(=O)N[C@@H](C)C(=O)N[C@@H](C)C(=O)N[C@@H](CCC(N)=O)C(=O)N[C@@H](CC(=O)O)C(=O)N[C@@](C)(Cc1ccccc1)C(=O)N[C@H](C(=O)N[C@@H](CCC(N)=O)C(=O)NC(C)(C)C(=O)N[C@H](C(=O)N[C@@H](C)C(=O)N[C@@H](CC(N)=O)C(N)=O)[C@@H](C)CC)C(C)C)C(=O)O)C(=O)O [Peptide 54] (H-HSQGS[αMeF]TSDVSK[Dip]LDSK([PEG2-PEG2-γGlu-γGlu-Stearoyl])AAQD[αMeF]VQ[Aib]IAN-NH2; N-terminus assumed) | 2.59 pM | 2.81 pM | 1.8
CCCCCCCCCCCCCCCCCC(=O)N[C@@H](CCC(=O)N[C@@H](CCC(=O)NCCOCCOCCC(=O)NCCOCCOCCC(=O)NCCCC[C@H](NC(=O)[C@H](CO)NC(=O)[C@H](CC(=O)O)NC(=O)[C@H](CC(C)C)NC(=O)[C@@H](NC(=O)[C@H](CCCCN)NC(=O)[C@H](CO)NC(=O)[C@@H](NC(=O)[C@H](CC(=O)O)NC(=O)[C@H](CO)NC(=O)[C@@H](NC(=O)[C@](C)(Cc1ccccc1)NC(=O)[C@H](CO)NC(=O)CNC(=O)[C@H](CCC(N)=O)NC(=O)[C@H](CO)NC(=O)[C@@H](N)Cc1c[nH]cn1)[C@@H](C)O)C(C)C)C(c1ccccc1)c1ccccc1)C(=O)N[C@@H](C)C(=O)N[C@@H](C)C(=O)N[C@@H](CCC(N)=O)C(=O)N[C@@H](CC(=O)O)C(=O)N[C@@](C)(Cc1ccccc1)C(=O)N[C@H](C(=O)N[C@@H](CCC(N)=O)C(=O)N[C@H](C(=O)N[C@@H](CC(C)C)C(=O)N[C@@H](CCC(=O)O)C(=O)N[C@@H](C)C(N)=O)C(c1ccccc1)c1ccccc1)C(C)C)C(=O)O)C(=O)O [Peptide 55] (H-HSQGS[αMeF]TSDVSK[Dip]LDSK([PEG2-PEG2-γGlu-γGlu-Stearoyl])AAQD[αMeF]VQ[Dip]LEA-NH2; N-terminus assumed) | 19.1 pM | 18.8 pM | 2.0
CCCCCCCCCCCCCCCCCC(=O)N[C@@H](CCC(=O)N[C@@H](CCC(=O)NCCOCCOCCOCCOCCC(=O)NCCCC[C@H](NC(=O)[C@H](CO)NC(=O)[C@H](CC(=O)O)NC(=O)[C@H](CC(C)C)NC(=O)[C@@H](NC(=O)[C@H](CCCCN)NC(=O)[C@H](CO)NC(=O)[C@@H](NC(=O)[C@H](CC(=O)O)NC(=O)[C@H](CO)NC(=O)[C@@H](NC(=O)[C@](C)(Cc1ccccc1)NC(=O)[C@H](CO)NC(=O)CNC(=O)[C@H](CCC(N)=O)NC(=O)[C@H](CO)NC(=O)[C@@H](N)Cc1c[nH]cn1)[C@@H](C)O)C(C)C)C(c1ccccc1)c1ccccc1)C(=O)N[C@@H](C)C(=O)N[C@@H](C)C(=O)N[C@@H](CCC(N)=O)C(=O)N[C@@H](CC(=O)O)C(=O)N[C@@](C)(Cc1ccccc1)C(=O)N[C@H](C(=O)N[C@@H](CCC(=O)O)C(=O)NC(C)(C)C(=O)N[C@H](C(=O)N[C@H](C(=O)N[C@@H](CC(N)=O)C(=O)N[C@H](C(N)=O)[C@@H](C)O)[C@@H](C)CC)[C@@H](C)CC)C(C)C)C(=O)O)C(=O)O [Peptide 56] (H-HSQGS[αMeF]TSDVSK[Dip]LDSK([PEG4-γGlu-γGlu-Stearoyl])AAQD[αMeF]VE[Aib]IINT-NH2; N-terminus assumed) | 10.9 pM | 4.86 pM | 4.4
CCCCCCCCCCCCCCCCCC(=O)N[C@@H](CCC(=O)N[C@@H](CCC(=O)NCCOCCOCCOCCOCCOCCOCCOCCOCCC(=O)NCCCC[C@H](NC(=O)[C@H](CO)NC(=O)[C@H](CC(=O)O)NC(=O)[C@H](CC(C)C)NC(=O)[C@@H](NC(=O)[C@H](CCCCN)NC(=O)[C@H](CO)NC(=O)[C@@H](NC(=O)[C@H](CC(=O)O)NC(=O)[C@H](CO)NC(=O)[C@@H](NC(=O)[C@](C)(Cc1ccccc1)NC(=O)[C@H](CO)NC(=O)CNC(=O)[C@H](CCC(N)=O)NC(=O)[C@H](CO)NC(=O)[C@@H](N)Cc1c[nH]cn1)[C@@H](C)O)C(C)C)C(c1ccccc1)c1ccccc1)C(=O)N[C@@H](C)C(=O)N[C@@H](C)C(=O)N[C@@H](CCC(N)=O)C(=O)N[C@@H](CC(=O)O)C(=O)N[C@@](C)(Cc1ccccc1)C(=O)N[C@H](C(=O)N[C@@H](CCC(=O)O)C(=O)NC(C)(C)C(=O)N[C@H](C(=O)N[C@H](C(=O)N[C@@H](CC(N)=O)C(=O)N[C@H](C(N)=O)[C@@H](C)O)[C@@H](C)CC)[C@@H](C)CC)C(C)C)C(=O)O)C(=O)O [Peptide 57] (H-HSQGS[αMeF]TSDVSK[Dip]LDSK([PEG8-γGlu-γGlu-Stearoyl])AAQD[αMeF]VE[Aib]IINT-NH2; N-terminus assumed) | 16.9 pM | 9.09 pM | 3.7

The remaining lines, values ahead:

EC50 [1] | EC50 [2] | % Relative Potency Ratio [2] | Compound
11.3 pM | 3.9 pM | 5.7 | CCCCCCCCCCCCCCCCCC(=O)N[C@@H](CCC(=O)N[C@@H](CCC(=O)NCCOCCOCCOCCOCCOCCOCCOCCOCCOCCOCCOCCOCCC(=O)NCCCC[C@H](NC(=O)[C@H](CO)NC(=O)[C@H](CC(=O)O)NC(=O)[C@H](CC(C)C)NC(=O)[C@@H](NC(=O)[C@H](CCCCN)NC(=O)[C@H](CO)NC(=O)[C@@H](NC(=O)[C@H](CC(=O)O)NC(=O)[C@H](CO)NC(=O)[C@@H](NC(=O)[C@](C)(Cc1ccccc1)NC(=O)[C@H](CO)NC(=O)CNC(=O)[C@H](CCC(N)=O)NC(=O)[C@H](CO)NC(=O)[C@@H](N)Cc1c[nH]cn1)[C@@H](C)O)C(C)C)C(c1ccccc1)c1ccccc1)C(=O)N[C@@H](C)C(=O)N[C@@H](C)C(=O)N[C@@H](CCC(N)=O)C(=O)N[C@@H](CC(=O)O)C(=O)N[C@@](C)(Cc1ccccc1)C(=O)N[C@H](C(=O)N[C@@H](CCC(=O)O)C(=O)NC(C)(C)C(=O)N[C@H](C(=O)N[C@H](C(=O)N[C@@H](CC(N)=O)C(=O)N[C@H](C(N)=O)[C@@H](C)O)[C@@H](C)CC)[C@@H](C)CC)C(C)C)C(=O)O)C(=O)O [Peptide 58] (H-HSQGS[αMeF]TSDVSK[Dip]LDSK([PEG12-γGlu-γGlu-Stearoyl])AAQD[αMeF]VE[Aib]IINT-NH2; N-terminus assumed)
28.4 pM | 6.18 pM | 9.1 | CCCCCCCCCCCCCCCCCC(=O)NCCOCCOCCC(=O)NCCOCCOCCC(=O)N[C@@H](CCC(=O)N[C@@H](CCC(=O)NCCCC[C@H](NC(=O)[C@H](CO)NC(=O)[C@H](CC(=O)O)NC(=O)[C@H](CC(C)C)NC(=O)[C@@H](NC(=O)[C@H](CCCCN)NC(=O)[C@H](CO)NC(=O)[C@@H](NC(=O)[C@H](CC(=O)O)NC(=O)[C@H](CO)NC(=O)[C@@H](NC(=O)[C@](C)(Cc1ccccc1)NC(=O)[C@H](CO)NC(=O)CNC(=O)[C@H](CCC(N)=O)NC(=O)[C@H](CO)NC(=O)[C@@H](N)Cc1c[nH]cn1)[C@@H](C)O)C(C)C)C(c1ccccc1)c1ccccc1)C(=O)N[C@@H](C)C(=O)N[C@@H](C)C(=O)N[C@@H](CCC(N)=O)C(=O)N[C@@H](CC(=O)O)C(=O)N[C@@](C)(Cc1ccccc1)C(=O)N[C@H](C(=O)N[C@@H](CCC(=O)O)C(=O)NC(C)(C)C(=O)N[C@H](C(=O)N[C@H](C(=O)N[C@@H](CC(N)=O)C(=O)N[C@H](C(N)=O)[C@@H](C)O)[C@@H](C)CC)[C@@H](C)CC)C(C)C)C(=O)O)C(=O)O [Peptide 59] (H-HSQGS[αMeF]TSDVSK[Dip]LDSK([γGlu-γGlu-PEG2-PEG2-Stearoyl])AAQD[αMeF]VE[Aib]IINT-NH2; N-terminus assumed)
